This is an account of results in patent US9434687B2, “Detection of synthetic cannabinoids” (priority 2011, dated 2016).

Read-outs that look alike come from different tables or passages of the source.

Assay type in all cases: binding, sheep
The subject of assay [1] is IgG fraction of antiserum raised to Immunogen I. The settings on record: Antibody to Immunogen I, cross-reactants at 100 ng/ml, 1000 ng/ml, standard JWH-018. The method, then: (§1) An aqueous solution of each immunogen was formulated with Freund's Complete Adjuvant (FCA) to form an emulsion consisting of 2 mg/ml*immunogen in 50% (v/v) FCA. Three sheep were immunised with this emulsion (1° immunisation), 0.25 ml being intramuscularly injected at each of four sites in the flank of each animal. Subsequent immunizations (boosts) contained 1 mg/ml*immunogen. All boosts were emulsified in 50% (v/v) Freund's Incomplete Adjuvant (FIA) and were administered in the same manner as the 1° immunisation, at monthly intervals. Blood sampling took place 7 to 14 days after each boost. *The general procedure for immunogen administration is outlined above, however, it was necessary to deviate from this protocol in some cases, due to reduced immunogen concentrations (Immunogens II, IV, VII and VIII) and/or amount available (Immunogen VIII). Any deviations from the protocol described are outlined in Table 5 below and highlighted in bold.
(§2) The wells of an enhanced binding 96 well polystyrene microtiter plate were coated with IgG fraction of antiserum raised to Immunogen I or II, diluted in 10 mM Tris, pH8.5 (125 μl/well). The appropriate antibody coating dilution was determined using standard ELISA checkerboard techniques. The plate was incubated overnight at 4° C., washed 4 times over 10 minutes with Tris buffered saline containing Tween 20 (TBST) and tapped dry. Standard solutions (JWH-018 for Immunogens I and II) were applied at 0, 0.625, 1.25, 2.5, 5, 10, 20 and 40 ng/ml and 50 μl of each was added to the appropriate wells. 75 μl of conjugate (appropriate hapten-HRP) diluted in Tris buffer (pH 7.2) containing EDTA, D-mannitol, sucrose, thimerosal and BSA, was added to each of the wells. The appropriate dilution of conjugate was also determined using standard ELISA checkerboard techniques. The plate was incubated at 25° C. for 1 hour. Excess unbound conjugate was removed by washing 6 times over a 10 minute period with TBST. 125 μl of tetramethylbenzidine (TMB) substrate solution was added to each well of the plate that was then incubated for 20 minutes in the dark at room temperature. The reaction was terminated by addition of 125 μl 0.2M H2SO4 to each well. The absorbance was then measured at 450 nm using a microtiter plate reader. The data are inputted to a computer program called ‘KC Junior’. It is a 4 parameter fit curve and allow the calculation of concentrations between the standard runs. This program is used to calculate the IC50s by dividing the 0 ng/ml OD value by 2 and obtaining the concentration value from the curve for this OD.
In a similar manner to that described above, the wells of a 96-well microtiter plate were coated with the IgG fraction of the antiserum raised to Immunogens I or II. Standard solutions (JWH-018 for Immunogen I and II) were applied at 0, 0.625, 1.25, 2.5, 5, 10, 20 and 40 ng/ml and conjugate was employed as detection reagent.
(§3) The data set out in Tables 7-10 are generated using antibodies raised against the indicated Immunogens in a competitive binding assay with the indicated tracers, using the indicated standards
(§4) In order to determine the specificity of the competitive ELISAs, standard solutions of a range of structurally similar synthetic cannabinoids and their metabolites were prepared in TBST.
(§5) Using the calibration curves generated and employing a single level of cross reactants, these were used to determine the cross-reactivity of each immunoassay with these substances. These are the standards used for the IC50 and cross-reactivity data generation: […]

In assay [2] the test system is IgG fraction of antiserum raised to Immunogen IV. The note with it: Antibody to Immunogen IV, cross-reactants at 100 ng/ml, 1000 ng/ml, standard JWH-018. The method, then: as §1, §2
(§6) In a similar manner to that described above, the wells of a 96-well microtiter plate were coated with the IgG fraction of the antiserum raised to Immunogens IV, VII or VIII. Standard solutions (JWH-018 for Immunogens IV and VIII, JWH-015 for Immunogen VII) were prepared in TBST at 0, 1.25, 2.5, 5, 10, 20, 40 and 80 ng/ml and conjugate was employed as detection reagent.
as §3, §4, §5

In assay [3] the test system is IgG fraction of antiserum raised to Immunogen VII. The settings on record: Antibody to Immunogen VII, cross-reactants at 100 ng/ml, 1000 ng/ml, standard JWH-015. The method, then:
as §1, §2, §6, §3, §4, §5

Assay [4] has as its system IgG fraction of antiserum raised to Immunogen VIII. The note with it: Antibody to Immunogen VIII, cross-reactants at 100 ng/ml, 1000 ng/ml, standard JWH-018. The protocol: as §1, §2, §6, §3, §4, §5

In the case of `CCCCCCC(C)(C)c1ccc([C@@H]2C[C@H](O)CC[C@H]2CCCO)c(O)c1` (racemic) [(+−)-CP 55,940], the “% B/B0” value in assay [1] is on record as 100.61%; in assay [2], 94.60%; in assay [3], 100.25%; in assay [4], 100.25%.
Take `CCCCCn1c(O)c(C(=O)c2cccc3ccccc23)c2ccccc21` [2-OH JWH-018, JWH-018 2-hydroxyindole metabolite]: the “% B/B0” value was 95.37% in assay [1], 100.14% in assay [2], 95.08% in assay [3] and 101.36% in assay [4].
Regarding `CCCCn1c(O)c(C(=O)c2cccc3ccccc23)c2ccccc21` [2-OH JWH-073, JWH-073 2-hydroxyindole metabolite], the “% B/B0” value in assay [1] was 89.62%; in assay [2], 89.63%; in assay [3], 92.65%; in assay [4], 93.42%.
The like results for `COc1ccc(C(=O)c2c(C)n(CCN3CCOCC3)c3cc(I)ccc23)cc1` [AM-630, 6-Iodopravadoline] were, in that order, 91.12%, 90.17%, 99.88% and 89.88%.
`O=C(c1ccc(I)cc1)c1cn(CCCCCF)c2ccccc12` [AM-694 4-iodo isomer]: the “% B/B0” value is on record as 73.79% in assay [1], 27.66% in assay [2], 98.71% in assay [3] and 13.42% in assay [4].
As to `CN1CCCCC1Cn1cc(C(=O)c2cc([N+](=O)[O-])ccc2I)c2ccccc21` (stereo not drawn) [AM-1241], the “% B/B0” value in assay [1] is reported as 85.61%; in assay [2] it was 91.38%; in assay [3], 94.96%; in assay [4], 102.46%.
For `CCCCCCC(C)(C)C1=CC(=O)C(C2CCCC(O)C2)=CC1=O` (stereo not drawn) [CP-47,497-para-quinone analogue], the “% B/B0” value in assay [1] was found to be 100.26%; in assay [2], 97.33%; in assay [3], 93.29%; in assay [4], 88.11%.
The like results for `CCCCCCCC(C)(C)c1ccc(C2CCCC(O)C2)c(O)c1` (stereo not drawn) [CP-49,497-C8-homologue] were, in that order, 101.11%, 94.66%, 98.55% and 104.88%.
Consider `CCCCCCC(C)(C)c1cc(O)c2c(c1)OC(C)(C)[C@@H]1CC=C(CO)C[C@@H]21` [HU-210], for which the “% B/B0” value in assay [1] stood at 102.57%; in assay [2], 92.53%; in assay [3] it was 100.39%; in assay [4], 93.42%.
The like results for `CCCCCCC(C)(C)c1cc(O)c2c(c1)OC(C)(C)[C@H]1CC=C(CO)C[C@H]21` [HU-211, Dexanabinol] were, in that order, 103.36%, 93.37%, 96.78% and 92.70%.
Consider `CCCCCCC(C)(C)c1cc(OC)c([C@@H]2C=C(CO)[C@@H]3C[C@H]2C3(C)C)c(OC)c1` [HU-308], for which the “% B/B0” value in assay [1] amounted to 101.35%; in assay [2], 94.03%; in assay [3] it was 95.95%; in assay [4], 89.77%.
As for `CCCCCn1cc(C(=O)c2ccc3ccccc3c2)c2ccccc21` [JWH 018 2′-naphthyl isomer], the “% B/B0” value in assay [1] came out at 75.90%; in assay [2], 28.13%; in assay [3], 94.98%; in assay [4], 14.94%.
The like results for `CCCCCn1cc(C(=O)C23CC4CC(CC(C4)C2)C3)c2ccccc21` [JWH 018 adamantyl analog] were, in that order, 95.94%, 99.02%, 94.48% and 10.97%.
Regarding `CCCCCn1cc(C(=O)Cc2cccc(Cl)c2)c2ccccc21` [JWH 203 3-chloro isomer], the “% B/B0” value in assay [1] was found to be 95.59%; in assay [2], 55.09%; in assay [3] it was 97.42%; in assay [4] it was 10.34%.
As to `CCCCCn1cc(C(=O)Cc2ccccc2OC)c2cc(O)ccc21` [JWH 250 5-hydroxyindole metabolite], the “% B/B0” value in assay [1] was found to be 100.75%; in assay [2], 84.05%; in assay [3] it was 99.88%; in assay [4], 67.19%.
With `COc1ccccc1CC(=O)c1cn(CCCCCC(=O)O)c2ccccc12` [JWH 250 N-(5-carboxypentyl) metabolite], the “% B/B0” value in assay [1] is 86.21%; in assay [2], 89.88%; in assay [3], 97.60%; in assay [4], 89.30%.
`COc1ccccc1CC(=O)c1cn(CCCCCO)c2ccccc12` [JWH 250 N-(5-hydroxypentyl) metabolite]: the “% B/B0” value in assay [1] was 75.47%; in assay [2], 76.22%; in assay [3] it was 96.13%; in assay [4], 42.79%.
In the case of `CCCCCn1cc(C(=O)Cc2cccc(C)c2)c2ccccc21` [JWH 251 3-methylphenyl isomer], the “% B/B0” value is given as 85.90% in assay [1], 51.15% in assay [2], 99.32% in assay [3] and 8.97% in assay [4].
With `CCCCCC(C)n1c(C)c(C(=O)c2cccc3ccccc23)c2ccccc21` (stereo not drawn) [JWH-011], the “% B/B0” value came out at 62.13% in assay [1], 99.19% in assay [2], 57.43% in assay [3] and 97.49% in assay [4].
As for `CCCCCn1ccc(C(=O)c2cccc3ccccc23)c1` [JWH-030], the “% B/B0” value in assay [1] is reported as 61.17%; in assay [2] it was 93.17%; in assay [3], 89.66%; in assay [4], 94.25%.
The like results for `CCCCn1cc(C(=O)c2ccc(C)c3ccccc23)c2ccccc21` [JWH-073 4-methylnaphthyl analogue] were, in that order, 45.54%, 7.01%, 78.36% and 19.75%.
In the case of `CCCCCn1cc(C(=O)c2c(OC)ccc3ccccc23)c2ccccc21` [JWH-081 2-methoxynaphthyl isomer], the “% B/B0” value in assay [1] worked out at 69.58%; in assay [2], 27.67%; in assay [3] it was 83.43%; in assay [4] it was 58.20%.
For the compound `CCCCCn1cc(C(=O)c2cccc3ccc(OC)cc23)c2ccccc21` [JWH-081 7-methoxynaphthyl isomer], the “% B/B0” value came to 88.26% in assay [1]; 91.86% in assay [1] (listed as JWH-164); 39.20% in assay [2]; 36.14% in assay [2] (listed as JWH-164); 97.60% in assay [3]; 96.13% in assay [3] (listed as JWH-164). Further, the “% B/B0” value in assay [4] worked out at 59.51%; in assay [4] (listed as JWH-164), 57.93%.
